Like-named read-outs stand apart in the source and are kept apart here.
Legend:
[1] = target: T1, Plasmodium falciparum protein kinase 6 (PK6) (Plasmodium falciparum, UniProt Q8IDW1); assay: biochemical
T1 construct: 6-Histidine (N); made in house
T1 sequence (Q8IDW1 1-305): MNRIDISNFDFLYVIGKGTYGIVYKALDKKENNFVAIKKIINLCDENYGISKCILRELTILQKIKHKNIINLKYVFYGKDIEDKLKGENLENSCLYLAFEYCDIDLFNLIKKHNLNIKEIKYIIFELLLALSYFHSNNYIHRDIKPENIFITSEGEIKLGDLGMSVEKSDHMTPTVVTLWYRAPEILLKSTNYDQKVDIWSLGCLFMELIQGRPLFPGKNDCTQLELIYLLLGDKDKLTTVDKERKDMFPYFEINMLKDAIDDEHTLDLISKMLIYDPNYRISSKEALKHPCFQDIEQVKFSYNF

[2] = system: HepG2 cells; conditions: HepG2 cells; ref ChEMBL; cited from earlier work
[3] = system: P. falciparum 3D7 cells; conditions: P. falciparum 3D7; ref ChEMBL; cited from earlier work
[4] = system: P. falciparum DD2; set-up: method as in ChEMBL; conditions: ref ChEMBL; cited from earlier work
[5] = system: 3D7 PFLDH; set-up: method as in ChEMBL; conditions: ref ChEMBL; cited from earlier work
[6] = target: T2, Plasmodium falciparum calcium-dependent protein kinase 1 (CDPK1) (Plasmodium falciparum, UniProt P62344); assay: CDPK1 Kinase-Glo ATP-consumption screen and dose-response; type: biochemical
T2 construct: 6-Histidine (N); made in house
T2 sequence (P62344 whole entry): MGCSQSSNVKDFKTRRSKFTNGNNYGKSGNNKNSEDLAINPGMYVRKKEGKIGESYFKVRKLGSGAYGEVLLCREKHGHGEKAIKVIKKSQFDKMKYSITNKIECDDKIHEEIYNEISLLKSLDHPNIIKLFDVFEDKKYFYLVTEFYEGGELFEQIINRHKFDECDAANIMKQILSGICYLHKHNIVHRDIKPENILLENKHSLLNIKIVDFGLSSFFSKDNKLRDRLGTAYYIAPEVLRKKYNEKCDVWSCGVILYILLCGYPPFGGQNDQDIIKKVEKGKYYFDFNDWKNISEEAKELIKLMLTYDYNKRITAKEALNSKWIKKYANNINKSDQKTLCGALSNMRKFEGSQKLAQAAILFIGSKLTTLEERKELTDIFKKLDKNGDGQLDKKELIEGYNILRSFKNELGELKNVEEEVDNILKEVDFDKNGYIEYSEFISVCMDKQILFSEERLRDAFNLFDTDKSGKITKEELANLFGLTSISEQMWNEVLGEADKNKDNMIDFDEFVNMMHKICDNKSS
In short: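 ATP consumption by recombinant P. falciparum CDPK4 or CDPK1 measured as residual ATP by Kinase-Glo luminescence, with 40 μM Syntide-2 substrate and 90 min incubation stopped with 5 mM EGTA. Single-point screen at 1 μM final, followed by dose-response; no-substrate wells as negative control.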

[7] = hits below 1 uM, read-out: PK6 IC50
[8] = hits below 1 uM, read-out: CDPK1 IC50

In the case of `Br.CC(=O)Nc1nc(C)c(-c2csc(Nc3ccc(Cl)cc3)n2)s1` [TCMDC-123995], the IC50 [1, 7] is given as 95 nM, the PCT_INHIB_HEPG2 [2] is given as 14 and the PCT_IHB_3D7 [3] is given as 96. For the same compound, the pXC50_3D7 [3] was 6.589, the PCT_INHB_DD2 [4] was 93 and the PCT_INHIB_3D7_PFLDH [5] was 0.
For `CN1CCC(NC(=O)c2cccc(Nc3cc(Nc4cccc(Br)c4)ncn3)c2)CC1` [TCMDC-124773], the IC50 [1, 7] is listed as 602 nM, the PCT_INHIB_HEPG2 [2] is listed as 25 and the PCT_IHB_3D7 [3] is listed as 94. The pXC50_3D7 [3] was 5.997, the PCT_INHB_DD2 [4] was 6 and the PCT_INHIB_3D7_PFLDH [5] was 1.
In the case of `Cc1cc(Nc2nc(Nc3cccc(Cl)c3)nc3ccccc23)n[nH]1` [TCMDC-134695], the IC50 [1, 7] is listed as 151 nM, the PCT_INHIB_HEPG2 [2] is listed as 9 and the PCT_IHB_3D7 [3] is listed as 100. For the same compound, the pXC50_3D7 [3] was 6.542, the PCT_INHB_DD2 [4] was 95 and the PCT_INHIB_3D7_PFLDH [5] was 0.
For `C(=N\Nc1nccc2sc(-c3ccccc3)cc12)/c1cccnc1` [TCMDC-135190], the IC50 [1, 7] is given as 278 nM, the PCT_INHIB_HEPG2 [2] is given as 0 and the PCT_IHB_3D7 [3] is given as 97. The pXC50_3D7 [3] was 6.086, the PCT_INHB_DD2 [4] was 10 and the PCT_INHIB_3D7_PFLDH [5] was 8.
In the case of `COc1ccc(Nc2ncc3c(-c4cccc(NC(=O)Cc5ccc(O)cc5)c4)c[nH]c3n2)cc1OC` [TCMDC-135248], the IC50 [6, 8] is given as 98 nM, the IC50 [1, 7] is given as 445 nM and the PCT_INHIB_HEPG2 [2] is given as 48. For the same compound, the PCT_IHB_3D7 [3] was 100, the pXC50_3D7 [3] was 6.244 and the PCT_INHB_DD2 [4] was 99. For the same compound, the PCT_INHIB_3D7_PFLDH [5] was 0.
In the case of `N=C(N)c1ccc(Nc2nccc(Nc3nc(-c4ccccc4)cs3)n2)cc1.O=C(O)C(F)(F)F` [TCMDC-136090], the IC50 [1, 7] is listed as 413 nM, the PCT_INHIB_HEPG2 [2] is listed as 13 and the PCT_IHB_3D7 [3] is listed as 96. For the same compound, the pXC50_3D7 [3] was 6.122, the PCT_INHB_DD2 [4] was 75 and the PCT_INHIB_3D7_PFLDH [5] was 0.
In the case of `Cl.N=C(N)c1ccc(Nc2nc(Nc3ccc(-c4ccccc4)cc3)ncc2[N+](=O)[O-])cc1` [TCMDC-136145], the IC50 [1, 7] is given as 164 nM, the PCT_INHIB_HEPG2 [2] is given as 11 and the PCT_IHB_3D7 [3] is given as 99. For the same compound, the pXC50_3D7 [3] was 6.095, the PCT_INHB_DD2 [4] was 35 and the PCT_INHIB_3D7_PFLDH [5] was 0.
In the case of `O=C(Cc1ccc(Nc2nccc(Nc3cccc4[nH]ncc34)n2)cc1)Nc1ccc(C(F)(F)F)cc1` [TCMDC-136243], the IC50 [1, 7] is listed as 167 nM, the PCT_INHIB_HEPG2 [2] is listed as 12 and the PCT_IHB_3D7 [3] is listed as 100. The pXC50_3D7 [3] was 6.052, the PCT_INHB_DD2 [4] was 69 and the PCT_INHIB_3D7_PFLDH [5] was 0.
For `Cc1ccc(S(=O)(=O)Nc2ccc(Nc3nccc(Nc4cccc5[nH]ncc45)n3)cc2)cc1` [TCMDC-136297], the IC50 [1, 7] is given as 823 nM, the PCT_INHIB_HEPG2 [2] is given as 57 and the PCT_IHB_3D7 [3] is given as 90. The pXC50_3D7 [3] was 6.019, the PCT_INHB_DD2 [4] was 5 and the PCT_INHIB_3D7_PFLDH [5] was 6.
In the case of `C#CCNC(=O)c1ccc(-c2ccnc(Nc3cccc(CCCN4CCOCC4)c3)n2)s1` [TCMDC-136764], the IC50 [1, 7] is given as 181 nM, the PCT_INHIB_HEPG2 [2] is given as 54 and the PCT_IHB_3D7 [3] is given as 82. For the same compound, the pXC50_3D7 [3] was 5.998, the PCT_INHB_DD2 [4] was 45 and the PCT_INHIB_3D7_PFLDH [5] was 0.
In the case of `Cn1c(=O)c(-c2c(Cl)cccc2Cl)cc2cnc(Nc3ccc(N4CCOCC4)cc3)nc21` [TCMDC-137156], the IC50 [1, 7] is given as 145 nM, the PCT_INHIB_HEPG2 [2] is given as 64 and the PCT_IHB_3D7 [3] is given as 98. The pXC50_3D7 [3] was 6.794, the PCT_INHB_DD2 [4] was 97 and the PCT_INHIB_3D7_PFLDH [5] was 4.
For `Cc1ccc(Nc2ccnc(Nc3ccc4c(c3)CS(=O)(=O)C4)n2)cc1O.Cl` [TCMDC-138484], the IC50 [6, 8] is given as 416 nM, the IC50 [1, 7] is given as 122 nM and the PCT_INHIB_HEPG2 [2] is given as 82. The PCT_IHB_3D7 [3] was 100, the pXC50_3D7 [3] was 6.14 and the PCT_INHB_DD2 [4] was 76. The PCT_INHIB_3D7_PFLDH [5] was 5.
In the case of `N#Cc1cnc(Nc2ccc(Oc3ccccc3)cc2)nc1Nc1cccc(S(N)(=O)=O)c1` [TCMDC-138613], the IC50 [1, 7] is given as 201 nM, the PCT_INHIB_HEPG2 [2] is given as 74 and the PCT_IHB_3D7 [3] is given as 96. The pXC50_3D7 [3] was 6.256, the PCT_INHB_DD2 [4] was 86 and the PCT_INHIB_3D7_PFLDH [5] was 3.
For `CCN(CC)CCNC(=O)c1ccc(Nc2ncc([N+](=O)[O-])c(Nc3ccccc3OC)n2)cc1.Cl` [TCMDC-138727], the IC50 [1, 7] is listed as 110 nM, the PCT_INHIB_HEPG2 [2] is listed as 59 and the PCT_IHB_3D7 [3] is listed as 97. The pXC50_3D7 [3] was 6.841, the PCT_INHB_DD2 [4] was 58 and the PCT_INHIB_3D7_PFLDH [5] was 0.
For `COc1cccc(-n2ncc3c(N/N=C/c4ccc(CN(C)CCN(C)C)cc4)ncnc32)c1` [TCMDC-138728], the IC50 [1, 7] is listed as 58 nM, the PCT_INHIB_HEPG2 [2] is listed as 29 and the PCT_IHB_3D7 [3] is listed as 100. The pXC50_3D7 [3] was 6.049, the PCT_INHB_DD2 [4] was 91 and the PCT_INHIB_3D7_PFLDH [5] was 0.
In the case of `CN(c1ccc2c(c1)nc(NCc1ccccc1)n2C)c1ccnc(Nc2ccc(CS(C)(=O)=O)cc2)n1.Cl` [TCMDC-138740], the IC50 [1, 7] is listed as 464 nM, the PCT_INHIB_HEPG2 [2] is listed as 61 and the PCT_IHB_3D7 [3] is listed as 94. For the same compound, the pXC50_3D7 [3] was 6.075, the PCT_INHB_DD2 [4] was 69 and the PCT_INHIB_3D7_PFLDH [5] was 4.
For `O=CO.O=S1(=O)NCc2ccc(Nc3nccc(Nc4ccc5c(cnn5Cc5ccccc5)c4)n3)cc21` [TCMDC-138840], the IC50 [6, 8] is listed as 110 nM, the IC50 [1, 7] is listed as 265 nM and the PCT_INHIB_HEPG2 [2] is listed as 0. For the same compound, the PCT_IHB_3D7 [3] was 94, the pXC50_3D7 [3] was 6.125 and the PCT_INHB_DD2 [4] was 33. The PCT_INHIB_3D7_PFLDH [5] was 0.
In the case of `CCN(CC)CCOc1ccc(Nc2ncc3cc(-c4c(Cl)cccc4Cl)c(=O)n(C)c3n2)cc1` [TCMDC-140940], the IC50 [6] is given as 780 nM, the IC50 [1] is given as 350 nM and the PCT_INHIB_HEPG2 [2] is given as 72. The PCT_IHB_3D7 [3] was 90, the pXC50_3D7 [3] was 5.929 and the PCT_INHB_DD2 [4] was 91. For the same compound, the PCT_INHIB_3D7_PFLDH [5] was 1.
For `Cn1cnc2c(Nc3ccncc3)nc(-c3ccc4c(c3)OCO4)nc21.O=C(O)C(F)(F)F` [TCMDC-141274], the IC50 [1, 7] is given as 500 nM, the PCT_INHIB_HEPG2 [2] is given as 19 and the PCT_IHB_3D7 [3] is given as 96. The pXC50_3D7 [3] was 5.953, the PCT_INHB_DD2 [4] was 2 and the PCT_INHIB_3D7_PFLDH [5] was 0.
In the case of `Cl.Nc1ncnc2occ(-c3ccc(NC(=O)Nc4cc(C(F)(F)F)ccc4F)cc3)c12` [TCMDC-141371], the IC50 [6, 8] is listed as 165 nM, the IC50 [1, 7] is listed as 335 nM and the PCT_INHIB_HEPG2 [2] is listed as 57. The PCT_IHB_3D7 [3] was 99, the pXC50_3D7 [3] was 5.765 and the PCT_INHB_DD2 [4] was 99. The PCT_INHIB_3D7_PFLDH [5] was 0.
In the case of `Cn1nc(-c2ccc(NC(=O)Nc3ccc4ccccc4c3)c(F)c2)c2cnc(NCCN3CCOCC3)nc21.O=C(O)C(F)(F)F` [TCMDC-141561], the IC50 [1, 7] is given as 860 nM, the PCT_INHIB_HEPG2 [2] is given as 62 and the PCT_IHB_3D7 [3] is given as 93. The pXC50_3D7 [3] was 5.992, the PCT_INHB_DD2 [4] was 3 and the PCT_INHIB_3D7_PFLDH [5] was 1.
For `Cc1ccc(Nc2nc3cc(Nc4ccnc(Nc5cccc(CS(C)(=O)=O)c5)n4)ccc3o2)cc1.O=C(O)C(F)(F)F` [TCMDC-141957], the IC50 [1, 7] is given as 229 nM, the PCT_INHIB_HEPG2 [2] is given as 55 and the PCT_IHB_3D7 [3] is given as 100. For the same compound, the pXC50_3D7 [3] was 6.0348, the PCT_INHB_DD2 [4] was 81 and the PCT_INHIB_3D7_PFLDH [5] was 4.
